Several values for one entry are separate records, joined by “and”; a condition that tells them apart may be missing. Identical values can stand only once.
Columns and labels:
mouse Mfsd2a [1] = experiment: Cell-based free fatty acid transport/uptake in Mfsd2a expressing HEK293 cells (mass spectrometry, TLC; Table 1); conditions: MS, replicate columns; for Amount of each lipid species, mol percent in total phospholipid analysed: mock HEK293 cells incubated with 100 uM Arachidonic fatty acid/BSA complex overnight; for Amount of each lipid species normalized to internal standard, mol percent in total phospholipid analysed / Amount of lipid species, mol percent in total phospholipid analysed: mock HEK293 cells; for Amount of lipid species, mol percent in total phospholipid analysed: 100 uM Oleic fatty acid/BSA complex overnight
Procedure: (§1) FIG. 12. […] Std: free [^14C]-DHA. b. TLC analysis of phospholipids and neutral lipids of HEK293 cells transfected with mouse Mfsd2a and mutants after overnight incubation with 100 μM [^14C]-oleate. TLC protocol used was described in Methods. PC: phosphatidylcholine, PE: phosphatidylethanolamine, TAG: triglyceride, CE: cholesteryl ester.
(§2) For tissue lipid analysis, brain, liver, and heart of female WT and KO mice with age of 7-8 weeks born to HET mothers, and brains from e18.5 embryos were collected and immediately frozen with liquid nitrogen until extraction. Lipid extraction was followed by chloroform/methanol method. For cell-based free fatty acid transport, lipids from HEK293 cells expressing mouse Mfsd2a and mock controls after overnight treatment with 100 μM docosahexaenoic, arachidonic, eicosapentaenoic, alpha-linolenic, linoleic, oleic, palmitic acids in BSA complex were extracted using HIP buffer (hexane:iso-propanol 3:2, per volume) and dried under N2 gas. Phospholipid species were measured by high performance liquid chromatography (HPLC) 1100 system (Agilent) coupled with an Triple Quadrupole/Ion Trap mass spectrometer (4000Qtrap, Applied Biosystem). Levels of individual phospholipid species were analyzed as described previously and quantified using spiked internal standards that includes PC-14:0/14:0, PE-14:0/14:0, PS-14:0/14:0 (Avanti Polar Lipids, Alabaster, Ala., USA), and dioctanoyl PI (Echelon Biosciences, Inc., Salt Lake City, Utah, USA).

mouse Mfsd2a [2] = target: T1, mouse Mfsd2a (Mus musculus, UniProt Q9DA75); experiment: as above; conditions: replicate columns; for Amount of each lipid species, mol percent in total phospholipid analysed: Mfsd2a expressing HEK293 cells incubated with 100 uM Arachidonic fatty acid/BSA complex overnight; for Amount of lipid species, mol percent in total phospholipid analysed / Amount of each lipid species normalized to internal standard, mol percent in total phospholipid analysed: Mfsd2a expressing HEK293 cells
T1 construct: expressed in transfected cells; host or cells: HEK293
T1 sequence (Q9DA75 1-534): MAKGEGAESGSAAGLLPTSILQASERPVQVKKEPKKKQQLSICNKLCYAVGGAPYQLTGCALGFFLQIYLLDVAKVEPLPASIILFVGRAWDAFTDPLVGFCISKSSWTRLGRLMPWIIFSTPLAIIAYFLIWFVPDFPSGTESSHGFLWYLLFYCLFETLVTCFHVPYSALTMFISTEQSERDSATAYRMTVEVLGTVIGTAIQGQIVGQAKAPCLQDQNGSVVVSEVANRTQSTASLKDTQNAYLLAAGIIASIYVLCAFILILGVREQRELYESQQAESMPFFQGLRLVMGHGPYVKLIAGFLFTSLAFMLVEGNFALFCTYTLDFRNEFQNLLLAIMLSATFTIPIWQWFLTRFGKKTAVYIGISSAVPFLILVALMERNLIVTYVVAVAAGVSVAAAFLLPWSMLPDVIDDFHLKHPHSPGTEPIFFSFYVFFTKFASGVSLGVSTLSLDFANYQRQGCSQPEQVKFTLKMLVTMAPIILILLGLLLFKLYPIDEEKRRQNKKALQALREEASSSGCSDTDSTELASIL
Procedure: as §1, §2

[3] = 100 uM Docosahexaenoic acid/BSA complex overnight
[4] = 100 uM Eicosapentaenoic acid/BSA complex overnight
[5] = 100 uM Alpha-linolenic fatty acid/BSA complex overnight
[6] = 100 uM Linoleic fatty acid/BSA complex overnight
[7] = 100 uM Docosahexaenoic acid/BSA complex overnight, MS
[8] = 100 uM Eicosapentaenoic acid/BSA complex overnight, MS
[9] = 100 uM Oleic fatty acid/BSA complex overnight, MS

| Structure (SMILES) | Amount of each lipid species, mol percent in total phospholipid analysed (mouse Mfsd2a [1]) | Amount of each lipid species normalized to internal standard, mol percent in total phospholipid analysed (mouse Mfsd2a [1]; [3]) | Amount of each lipid species normalized to internal standard, mol percent in total phospholipid analysed (mouse Mfsd2a [1]; [4]) | Amount of lipid species, mol percent in total phospholipid analysed (mouse Mfsd2a [1]) | Amount of each lipid species, mol percent in total phospholipid analysed (mouse Mfsd2a [2]; MS) | Amount of lipid species, mol percent in total phospholipid analysed (mouse Mfsd2a [2]; [5]) | Amount of lipid species, mol percent in total phospholipid analysed (mouse Mfsd2a [2]; [6]) | Amount of each lipid species normalized to internal standard, mol percent in total phospholipid analysed (mouse Mfsd2a [2]; [7]) | Amount of each lipid species normalized to internal standard, mol percent in total phospholipid analysed (mouse Mfsd2a [2]; [8]) | Amount of lipid species, mol percent in total phospholipid analysed (mouse Mfsd2a [2]; [9]) |
| --- | --- | --- | --- | --- | --- | --- | --- | --- | --- | --- |
| CCCCCCCCCCCCCCCC(=O)OC[C@@H](O)COP(=O)([O-])OCC[N+](C)(C)C [LysoPC16:0] | 0.02322 mol percent and 0.02517 mol percent and 0.02807 mol percent | 0.03115 mol percent and 0.02846 mol percent and 0.03055 mol percent | 0.02508 mol percent and 0.02349 mol percent and 0.02482 mol percent | 0.01539 mol percent and 0.01577 mol percent and 0.0163 mol percent | 0.02415 mol percent and 0.0241 mol percent and 0.02855 mol percent and 0.02172 mol percent | 0.02586 mol percent and 0.02533 mol percent and 0.02841 mol percent and 0.02293 mol percent | 0.02176 mol percent and 0.01959 mol percent and 0.02134 mol percent and 0.02259 mol percent | 0.03726 mol percent and 0.03481 mol percent and 0.03081 mol percent and 0.02684 mol percent | 0.02694 mol percent and 0.02534 mol percent and 0.02456 mol percent and 0.02331 mol percent | 0.01777 mol percent and 0.01495 mol percent and 0.01595 mol percent and 0.01964 mol percent |
| CCCCCCCCCCCCCCCCOC[C@@H](O)COP(=O)([O-])OCC[N+](C)(C)C [LysoPC16:0e] | 0.008219 mol percent and 0.01198 mol percent and 0.009457 mol percent | 0.005025 mol percent and 0.003881 mol percent and 0.00548 mol percent | 0.00417 mol percent and 0.00451 mol percent and 0.003651 mol percent | 0.003153 mol percent and 0.001998 mol percent and 0.003294 mol percent | 0.008218 mol percent and 0.00827 mol percent and 0.009441 mol percent and 0.01026 mol percent | 0.004349 mol percent and 0.003802 mol percent and 0.005532 mol percent and 0.004823 mol percent | 0.004905 mol percent and 0.004227 mol percent and 0.005291 mol percent and 0.006453 mol percent | 0.005111 mol percent and 0.004575 mol percent and 0.004499 mol percent and 0.004664 mol percent | 0.005369 mol percent and 0.005332 mol percent and 0.003584 mol percent and 0.004376 mol percent | 0.002972 mol percent and 0.00261 mol percent and 0.002228 mol percent and 0.001403 mol percent |
| CCCCCCCCCCCCCCCCCC(=O)OC[C@@H](O)COP(=O)([O-])OCC[N+](C)(C)C [LysoPC18:0] | 0.006849 mol percent and 0.006628 mol percent and 0.006426 mol percent | 0.008486 mol percent and 0.008947 mol percent and 0.009444 mol percent | 0.006911 mol percent and 0.007615 mol percent and 0.006374 mol percent | 0.005105 mol percent and 0.004638 mol percent and 0.005658 mol percent | 0.006865 mol percent and 0.00639 mol percent and 0.005642 mol percent and 0.008281 mol percent | 0.008875 mol percent and 0.009786 mol percent and 0.00943 mol percent and 0.009646 mol percent | 0.006967 mol percent and 0.006454 mol percent and 0.007395 mol percent and 0.006903 mol percent | 0.009464 mol percent and 0.008616 mol percent and 0.009301 mol percent and 0.008257 mol percent | 0.006896 mol percent and 0.007974 mol percent and 0.005812 mol percent and 0.007684 mol percent | 0.005262 mol percent and 0.005101 mol percent and 0.005659 mol percent and 0.004823 mol percent |
| CCCCCCCCCCCCCCCCCCOC[C@@H](O)COP(=O)([O-])OCC[N+](C)(C)C [LysoPC18:0e] | 0.00137 mol percent and 0.002231 mol percent and 0.001637 mol percent | 0.002177 mol percent and 0.002156 mol percent and 0.002215 mol percent | 0.001609 mol percent and 0.002109 mol percent and 0.001671 mol percent | 0.001802 mol percent and 0.00157 mol percent and 0.001773 mol percent | 0.001403 mol percent and 0.001832 mol percent and 0.001957 mol percent and 0.00156 mol percent | 0.001528 mol percent and 0.001007 mol percent and 0.001383 mol percent and 0.001468 mol percent | 0.00128 mol percent and 0.001885 mol percent and 0.001443 mol percent and 0.001726 mol percent | 0.002316 mol percent and 0.001944 mol percent and 0.002079 mol percent and 0.002217 mol percent | 0.002414 mol percent and 0.001699 mol percent and 0.001986 mol percent and 0.001832 mol percent | 0.002105 mol percent and 0.002254 mol percent and 0.001084 mol percent and 0.001841 mol percent |
| CCCCCCCCCCCCCCCC(=O)OC[C@@H](O)COP(=O)(O)OCCN [LysoPE16:0] | 0.08991 mol percent and 0.08319 mol percent and 0.0827 mol percent | 0.06318 mol percent and 0.083 mol percent and 0.06994 mol percent | 0.06426 mol percent and 0.1796 mol percent and 0.1079 mol percent | 0.056 mol percent and 0.03411 mol percent and 0.06706 mol percent | 0.1468 mol percent and 0.08379 mol percent and 0.1077 mol percent and 0.1337 mol percent | 0.1381 mol percent and 0.2428 mol percent and 0.2355 mol percent and 0.07619 mol percent | 0.03967 mol percent and 0.1018 mol percent and 0.06313 mol percent and 0.02483 mol percent | 0.08329 mol percent and 0.03847 mol percent and 0.07102 mol percent and 0.05717 mol percent | 0.09357 mol percent and 0.09693 mol percent and 0.09655 mol percent and 0.07626 mol percent | 0.04601 mol percent and 0.01705 mol percent and 0.1151 mol percent and 0.08973 mol percent |
